Experimental data from PubChem BioAssay (NCI).
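GI50 marks 50% less growth. TGI marks complete inhibition of growth.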

Assays:
Assay in all cases: NCI-60 cell line screen, 384-well format
SK-OV-3 ovarian = test system: SK-OV-3 ovarian
OVCAR-8 ovarian = test system: OVCAR-8 ovarian
COLO 205 colon = test system: COLO 205 colon
RPMI-8226 leukemia = test system: RPMI-8226 leukemia
CAKI-1 renal = test system: CAKI-1 renal
HOP-92 NSCLC = test system: HOP-92 NSCLC
NCI-H226 lung = test system: NCI-H226 lung
SF-295 CNS = test system: SF-295 CNS
SNB-75 CNS = test system: SNB-75 CNS
MALME-3M melanoma = test system: MALME-3M melanoma
MOLT-4 leukemia = test system: MOLT-4 leukemia
HCT-15 colon = test system: HCT-15 colon
PC-3 prostate = test system: PC-3 prostate
MCF7 breast = test system: MCF7 breast
SK-MEL-28 melanoma = test system: SK-MEL-28 melanoma
NCI-H460 NSCLC = test system: NCI-H460 NSCLC
SN12C renal = test system: SN12C renal
U251 glioblastoma = test system: U251 glioblastoma
NCI-H23 lung = test system: NCI-H23 lung
RXF 393 renal = test system: RXF 393 renal
BT-549 breast = test system: BT-549 breast
M14 melanoma = test system: M14 melanoma
NCI/ADR-RES ovarian = test system: NCI/ADR-RES ovarian
HT29 colon = test system: HT29 colon
NCI-H522 lung = test system: NCI-H522 lung
CCRF-CEM leukemia = test system: CCRF-CEM leukemia
HOP-62 NSCLC = test system: HOP-62 NSCLC
HL-60(TB) leukemia = test system: HL-60(TB) leukemia
UACC-62 melanoma = test system: UACC-62 melanoma
HS 578T breast = test system: HS 578T breast
SF-539 CNS = test system: SF-539 CNS
SF-268 CNS = test system: SF-268 CNS
SNB-19 CNS = test system: SNB-19 CNS
TK-10 renal = test system: TK-10 renal
T-47D breast = test system: T-47D breast
OVCAR-5 ovarian = test system: OVCAR-5 ovarian
NCI-H322M lung = test system: NCI-H322M lung
SK-MEL-5 melanoma = test system: SK-MEL-5 melanoma
KM12 colon = test system: KM12 colon
OVCAR-3 ovarian = test system: OVCAR-3 ovarian
MDA-MB-435 melanoma = test system: MDA-MB-435 melanoma
OVCAR-4 ovarian = test system: OVCAR-4 ovarian
SR leukemia = test system: SR leukemia
UACC-257 melanoma = test system: UACC-257 melanoma
SK-MEL-2 melanoma = test system: SK-MEL-2 melanoma
MDA-MB-231 breast = test system: MDA-MB-231 breast
A549 NSCLC = test system: A549 NSCLC
IGROV1 ovarian = test system: IGROV1 ovarian
EKVX NSCLC = test system: EKVX NSCLC
MDA-MB-468 breast = test system: MDA-MB-468 breast
DU-145 prostate = test system: DU-145 prostate
HCC-2998 colon = test system: HCC-2998 colon
ACHN renal = test system: ACHN renal
786-0 renal = test system: 786-0 renal
SW-620 colon = test system: SW-620 colon

Nc1ncn([C@@H]2S[C@H](CO)[C@@H](O)[C@@H]2F)c(=O)n1
GI50 (SK-OV-3 ovarian): 0.299 µM | TGI (SK-OV-3 ovarian): 2.2 µM | GI50 (OVCAR-8 ovarian): 0.255 µM | TGI (OVCAR-8 ovarian): 1.83 µM | GI50 (COLO 205 colon): 0.268 µM | TGI (COLO 205 colon): 0.788 µM | GI50 (RPMI-8226 leukemia): 2.16 µM | TGI (RPMI-8226 leukemia): 4.42 µM | GI50 (CAKI-1 renal): 0.625 µM | TGI (CAKI-1 renal): > 100 µM | GI50 (HOP-92 NSCLC): 0.314 µM | TGI (HOP-92 NSCLC): > 100 µM | GI50 (NCI-H226 lung): 1.01 µM | TGI (NCI-H226 lung): 3.8 µM | GI50 (SF-295 CNS): 2.44 µM | TGI (SF-295 CNS): 17.8 µM | GI50 (SNB-75 CNS): 15.6 µM | TGI (SNB-75 CNS): > 100 µM | GI50 (MALME-3M melanoma): 0.366 µM | TGI (MALME-3M melanoma): 2.66 µM | GI50 (MOLT-4 leukemia): 0.0287 µM | TGI (MOLT-4 leukemia): 0.11 µM | GI50 (HCT-15 colon): 1.85 µM | TGI (HCT-15 colon): > 100 µM | GI50 (PC-3 prostate): 1.43 µM | TGI (PC-3 prostate): > 100 µM | GI50 (MCF7 breast): 0.663 µM | TGI (MCF7 breast): > 100 µM | GI50 (SK-MEL-28 melanoma): 0.507 µM | TGI (SK-MEL-28 melanoma): 4.92 µM | GI50 (NCI-H460 NSCLC): 0.238 µM | TGI (NCI-H460 NSCLC): 0.724 µM | GI50 (SN12C renal): 0.604 µM | TGI (SN12C renal): 2.91 µM | GI50 (U251 glioblastoma): 2.41 µM | TGI (U251 glioblastoma): 23.6 µM | GI50 (NCI-H23 lung): 0.269 µM | TGI (NCI-H23 lung): 0.805 µM | GI50 (RXF 393 renal): 2.77 µM | TGI (RXF 393 renal): 44.8 µM | GI50 (BT-549 breast): 1.34 µM | TGI (BT-549 breast): 8.75 µM | GI50 (M14 melanoma): 0.29 µM | TGI (M14 melanoma): 0.833 µM | GI50 (NCI/ADR-RES ovarian): 0.291 µM | TGI (NCI/ADR-RES ovarian): 1.38 µM | GI50 (HT29 colon): 2.38 µM | TGI (HT29 colon): > 100 µM | GI50 (NCI-H522 lung): 0.628 µM | TGI (NCI-H522 lung): > 100 µM | GI50 (CCRF-CEM leukemia): 0.0266 µM | TGI (CCRF-CEM leukemia): 0.0961 µM | GI50 (HOP-62 NSCLC): 0.423 µM | TGI (HOP-62 NSCLC): 2.59 µM | GI50 (HL-60(TB) leukemia): 0.241 µM | TGI (HL-60(TB) leukemia): 0.495 µM | GI50 (UACC-62 melanoma): 3.64 µM | TGI (UACC-62 melanoma): 19.7 µM | GI50 (HS 578T breast): 0.984 µM | TGI (HS 578T breast): > 100 µM | GI50 (SF-539 CNS): 3.75 µM | TGI (SF-539 CNS): 18.6 µM | GI50 (SF-268 CNS): 1.05 µM | TGI (SF-268 CNS): 4.99 µM | GI50 (SNB-19 CNS): 0.461 µM | TGI (SNB-19 CNS): 7.05 µM | GI50 (TK-10 renal): 0.988 µM | TGI (TK-10 renal): > 100 µM | GI50 (T-47D breast): 10.4 µM | TGI (T-47D breast): > 100 µM | GI50 (OVCAR-5 ovarian): 0.691 µM | TGI (OVCAR-5 ovarian): 7.73 µM | GI50 (NCI-H322M lung): 2.91 µM | TGI (NCI-H322M lung): > 100 µM | GI50 (SK-MEL-5 melanoma): 0.435 µM | TGI (SK-MEL-5 melanoma): 2.76 µM | GI50 (KM12 colon): 1.41 µM | TGI (KM12 colon): > 100 µM | GI50 (OVCAR-3 ovarian): 0.853 µM | TGI (OVCAR-3 ovarian): > 100 µM | GI50 (MDA-MB-435 melanoma): 1.73 µM | TGI (MDA-MB-435 melanoma): > 100 µM | GI50 (OVCAR-4 ovarian): > 100 µM | TGI (OVCAR-4 ovarian): > 100 µM | GI50 (SR leukemia): 0.414 µM | TGI (SR leukemia): 1.4 µM | GI50 (UACC-257 melanoma): 58.7 µM | TGI (UACC-257 melanoma): > 100 µM | GI50 (SK-MEL-2 melanoma): 0.392 µM | TGI (SK-MEL-2 melanoma): 0.692 µM | GI50 (MDA-MB-231 breast): 1.14 µM | TGI (MDA-MB-231 breast): 81.1 µM | GI50 (A549 NSCLC): 0.409 µM | TGI (A549 NSCLC): > 100 µM | GI50 (IGROV1 ovarian): 2.03 µM | TGI (IGROV1 ovarian): > 100 µM | GI50 (EKVX NSCLC): 6.47 µM | TGI (EKVX NSCLC): > 100 µM | GI50 (MDA-MB-468 breast): 2.37 µM | TGI (MDA-MB-468 breast): 8.07 µM | GI50 (DU-145 prostate): 0.389 µM | TGI (DU-145 prostate): 3.95 µM | GI50 (HCC-2998 colon): 0.267 µM | TGI (HCC-2998 colon): 14.1 µM | GI50 (ACHN renal): 0.224 µM | TGI (ACHN renal): 0.49 µM | GI50 (786-0 renal): 0.254 µM | TGI (786-0 renal): 1.54 µM | GI50 (SW-620 colon): 0.887 µM | TGI (SW-620 colon): > 100 µM
